Tested on: 485176-168-R4-J1-PDC spheroids with HUVEC/MSC, viability
Test: Anticancer human tumor 485176-168-R4-J1-PDC patient-derived pancreatic adenocarcinoma cell line growth inhibition [GQUAD]
Settings: for IC50: curve of first compound; for viability, T/C: stronger effect = lower value
Text: DNA G-quadruplex Stabilizer Agents in Combinations in Complex Spheroids
A high-throughput screen of multi-cell type tumor spheroids was designed to identify active combinations of DNA G-quadruplex stabilizer agents and targeted small molecules. Complex spheroids include a stromal component modeled by human endothelial cells (HUVEC) and fibroblasts modeled by human mesenchymal stem cells (MSCs). The concentration ranges selected for each drug and investigational agent were based upon clinically achievable concentrations if the clinical Cmax of the agent was known.
Compounds. The drugs and investigational agents: pidnarulex (CX-5461; NSC782164), APTO-253 (NSC789042), BRACO-19 (NSC847499), peposertib (NSC802822), ceralasertib (NSC780249), elimusertib (NSC800525), camonsertib (NSC841442), AZD-1390 (NSC803789), olaparib (NSC753686), talazoparib (NSC767125), ART-558 (NSC835418), sotorasib (NSC818433), MRTX-1133 (NSC836407), SN-38 (NSC673596), topotecan (NSC609699), etoposide (NSC141540), doxorubicin (NSC123127), gemcitabine (NSC613327), 5-fluorouracil (NSC19893), paclitaxel (NSC125973), vemurafenib (NSC761431), panobinostat (NSC761190), R-306465 (JNJ-16241199; NSC773264), adavosertib (NSC754352), TP-3654 (NSC805149), carboplatin (NSC241240), KSQ-4279 (NSC840948), and staurosporine (NSC755774) were obtained from the National Cancer Institute (NCI) Developmental Therapeutics Program Chemical Repository (34). The FDA-approved anticancer drug set is available from the NCI Developmental Therapeutics Program. […] The stock solutions were prepared in dimethyl sulfoxide (DMSO, Sigma-Aldrich, St. Louis, MO, cat. D2650) at 800-fold the tested concentration and stored at -70 degrees C prior to their use. All drugs and investigational agents were tested over a range starting from a high concentration at or near the clinical Cmax and decreasing in half-log increments. If the clinical Cmax for an agent had not been determined, the highest concentration tested was 10 microM.
2.3 Cell Culture. All cells were maintained in an incubator at 37 degrees C and 5% CO2 with 95% humidity. The PDC lines were cultured according to standard operating procedures established by the NCI PDMR. All PDCs were thawed and cultured in Matrigel-coated flasks prepared with a working solution of 1X Ham's F-12 nutrient mix, without supplementation (Invitrogen, cat. 11765054), 100 U/mL penicillin-streptomycin (Invitrogen, cat. 15140122), and 2.5% Matrigel (Corning Inc., cat. 354248) for the first three passages. The 857933-349-R-J2-PDC line was cultured in 6C/Colon 1B media, which includes advanced DMEM/F-12 (Thermo Fisher Scientific, cat. 12634028), 10 mM HEPES (Thermo Fisher Scientific, cat. 15630080), 1X GlutaMAX supplement (Thermo Fisher Scientific, cat. 35050061), 0.1 mg/mL primocin (InvivoGen, cat. ant-pm-2), 10% defined fetal bovine serum, heat inactivated (HyClone Laboratories Inc., cat. SH30070.03HI), 50% L-WRN conditioned media (ATCC, cat. CRL-3276), 1.25 mM N-Acetyl-L-cysteine (Sigma-Aldrich, cat. A9165), 10 mM nicotinamide (Sigma-Aldrich, cat. N0636), 1X B-27 supplement (Thermo Fisher Scientific, cat. 17504044), 1X N-2 supplement (Thermo Fisher Scientific, cat. 17502048), 10 microM Y-27632 dihydrochloride (Tocris Bioscience, cat. 1254), and 50 ng/mL human EGF recombinant protein (Thermo Fisher Scientific, cat. PHG0311). The 485176-168-R4-J1-PDC line was cultured in Panc media, which includes all 6C/Colon 1B media components plus 100 ng/mL human FGF-10 (Thermo Fisher Scientific, cat. 100-26), 500 nM SB-431542 (Selleckchem, cat. S1067), and gastrin (Tocris, cat. 3006).
[…]

[1] = second compound 0.0316 µM, first compound 0.0316 µM
[2] = second compound 0.0316 µM, first compound 0.1 µM
[3] = second compound 0.0316 µM, first compound 0.316 µM
[4] = second compound 0.0316 µM, first compound 1 µM
[5] = second compound 0.0316 µM, first compound 3.16 µM
[6] = second compound 0.0316 µM, first compound 10 µM
[7] = second compound 0.1 µM, first compound 0.0316 µM
[8] = second compound 0.1 µM, first compound 0.1 µM
[9] = second compound 0.1 µM, first compound 0.316 µM
[10] = second compound 0.1 µM, first compound 1 µM
[11] = second compound 0.1 µM, first compound 3.16 µM
[12] = second compound 0.1 µM, first compound 10 µM
[13] = second compound 0.316 µM, first compound 0.0316 µM
[14] = second compound 0.316 µM, first compound 0.1 µM
[15] = second compound 0.316 µM, first compound 0.316 µM
[16] = second compound 0.316 µM, first compound 1 µM
[17] = second compound 0.316 µM, first compound 3.16 µM
[18] = second compound 0.316 µM, first compound 10 µM
[19] = second compound 1 µM, first compound 0.0316 µM
[20] = second compound 1 µM, first compound 0.1 µM
[21] = second compound 1 µM, first compound 0.316 µM
[22] = second compound 1 µM, first compound 1 µM
[23] = second compound 1 µM, first compound 3.16 µM
[24] = second compound 1 µM, first compound 10 µM
[25] = second compound 3.16 µM, first compound 0.0316 µM
[26] = second compound 3.16 µM, first compound 0.1 µM
[27] = second compound 3.16 µM, first compound 0.316 µM
[28] = second compound 3.16 µM, first compound 1 µM
[29] = second compound 3.16 µM, first compound 3.16 µM
[30] = second compound 3.16 µM, first compound 10 µM
[31] = second compound 10 µM, first compound 0.0316 µM
[32] = second compound 10 µM, first compound 0.1 µM
[33] = second compound 10 µM, first compound 0.316 µM
[34] = second compound 10 µM, first compound 1 µM
[35] = second compound 10 µM, first compound 3.16 µM
[36] = second compound 10 µM, first compound 10 µM
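Further: spheroids exposed to compounds for seven days before readout.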
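Wherever viability, T/C is given: percent viability relative to DMSO vehicle control wells as 100%.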

Compound: C#Cc1c(F)ccc2cc(O)cc(-c3ncc4c(N5CC6CCC(C5)N6)nc(OCC56CCCN5CC(F)C6)nc4c3F)c12 (centres undefined) + Cc1[nH]c2ccc(F)cc2c1-c1nc2c3cccnc3c3ncccc3c2[nH]1
- IC50 (second compound 0.0316 µM): > 10000 nM
- IC50 (second compound 0.1 µM): > 10000 nM
- IC50 (second compound 0.316 µM): > 10000 nM
- IC50 (second compound 1 µM): > 10000 nM
- IC50 (second compound 3.16 µM): > 10000 nM
- IC50 (second compound 10 µM): > 10000 nM
- viability, T/C [1]: 92.5%
- viability, T/C [2]: 95.7%
- viability, T/C [3]: 91.5%
- viability, T/C [4]: 84.1%
- viability, T/C [5]: 90.3%
- viability, T/C [6]: 89.7%
- viability, T/C [7]: 93%
- viability, T/C [8]: 102%
- viability, T/C [9]: 101%
- viability, T/C [10]: 109%
- viability, T/C [11]: 103%
- viability, T/C [12]: 93.6%
- viability, T/C [13]: 91%
- viability, T/C [14]: 101%
- viability, T/C [15]: 93.4%
- viability, T/C [16]: 107%
- viability, T/C [17]: 99.1%
- viability, T/C [18]: 87%
- viability, T/C [19]: 105%
- viability, T/C [20]: 89.2%
- viability, T/C [21]: 92.4%
- viability, T/C [22]: 81.5%
- viability, T/C [23]: 109%
- viability, T/C [24]: 93%
- viability, T/C [25]: 98.9%
- viability, T/C [26]: 80.9%
- viability, T/C [27]: 105%
- viability, T/C [28]: 97.6%
- viability, T/C [29]: 90.4%
- viability, T/C [30]: 95.3%
- viability, T/C [31]: 96.6%
- viability, T/C [32]: 92%
- viability, T/C [33]: 82.7%
- viability, T/C [34]: 87.8%
- viability, T/C [35]: 85.1%
- viability, T/C [36]: 86.5%

Compound: C=CCn1c(=O)c2cnc(Nc3ccc(N4CCN(C)CC4)cc3)nc2n1-c1cccc(C(C)(C)O)n1 + Cc1[nH]c2ccc(F)cc2c1-c1nc2c3cccnc3c3ncccc3c2[nH]1
- IC50 (second compound 0.0316 µM): 401 nM
- IC50 (second compound 0.1 µM): 386 nM
- IC50 (second compound 0.316 µM): 469 nM
- IC50 (second compound 1 µM): 468 nM
- IC50 (second compound 3.16 µM): 360 nM
- IC50 (second compound 10 µM): 309 nM
- viability, T/C [1]: 103%
- viability, T/C [2]: 96.9%
- viability, T/C [3]: 55.1%
- viability, T/C [4]: 22.6%
- viability, T/C [5]: 7.84%
- viability, T/C [6]: 3.33%
- viability, T/C [7]: 105%
- viability, T/C [8]: 82.8%
- viability, T/C [9]: 60.2%
- viability, T/C [10]: 20%
- viability, T/C [11]: 7.9%
- viability, T/C [12]: 4.23%
- viability, T/C [13]: 98.2%
- viability, T/C [14]: 81.1%
- viability, T/C [15]: 65.8%
- viability, T/C [16]: 25%
- viability, T/C [17]: 6.26%
- viability, T/C [18]: 4.73%
- viability, T/C [19]: 115%
- viability, T/C [20]: 94.4%
- viability, T/C [21]: 66.7%
- viability, T/C [22]: 22%
- viability, T/C [23]: 7.76%
- viability, T/C [24]: 4.28%
- viability, T/C [25]: 114%
- viability, T/C [26]: 75.1%
- viability, T/C [27]: 63.7%
- viability, T/C [28]: 23.2%
- viability, T/C [29]: 6.68%
- viability, T/C [30]: 4.03%
- viability, T/C [31]: 101%
- viability, T/C [32]: 82.4%
- viability, T/C [33]: 50.1%
- viability, T/C [34]: 18.9%
- viability, T/C [35]: 5.54%
- viability, T/C [36]: 3.76%

Source: PubChem BioAssay AID2060509 (Molecular Pharmacology Branch, DTP, NCI, 2025)
